Source: patent publication US20040254129A1, “Use of ethoxylated phytosterols and phytostanols” (priority 2001, published 2004)
Read-outs that look alike come from different tables or passages of the source. Marks after values point to notes of the source that are not given here. One block for each compound: values may come before it.

Columns and labels:
[1] = Solubilization of felodipine by surfactants (14C scintillation detection); format: physicochemical; settings: for solubility of felodipine on addition of the surfactant (in words): 0.9% (w/w) NaCl in water
Description: Both ^14C-labelled and non-labelled felodipine were provided by AstraZeneca AB. In order to obtain a molecularly homogeneous mixture of labelled and non-labelled felodipine, both components were dissolved in chloroform. After a clear solution was obtained, the solvent was evaporated. […] The surfactants were dissolved and diluted in 0.9% (w/w) NaCl in water. The felodipine was added in excess and the samples were allowed to equilibrate for over 48 hours in room temperature under thorough shaking. The samples were filtered using 4 mm Durapore filters (0.45 μm, Millipore) to remove undissolved felodipine. […] From each sample 0.5 ml solution was withdrawn and mixed with 3.5 ml scintillation liquid. The concentration of dissolved felodipine was determined by means of scintillation detection using a Beckman LS6500 scintillation counter.
The solubilization capacity of each surfactant with respect to felodipine was determined by considering the slope of the solubilization curves, α. The slope of each curve, α, describes the additional amount of felodipine that can be dissolved in a solution when a small amount of surfactant is added, which is also the definition of the solubilization capacity. [formula]
The solubilization capacity was calculated by fitting a linear expression to the experimental data and extracting the slope, α.

[2] = system: fresh blood taken from beagle dog (red blood cells); assay: Determination of hemolysis in fresh blood; format: cell-based; settings: for Hemolytic activity (concentration range at which 5% hemolysis is obtained): surfactant concentration in blood/surfactant mixture, read from hemolysis curves
Description: 100 μl surfactant solution was added to 400 μl fresh blood taken from beagle dog. The blood and surfactant mixture was gently agitated for 2-3 seconds immediately after addition, followed by 10 mins incubation at 37° C. under gentle shaking. […] During centrifugation the sample separated into a sediment of red blood cells and a supernatant. […] Each determination was carried out for triplicate samples.
After 30 minutes 400 μl of the so-obtained solution was mixed with 100 μl normal saline. From the resulting solution, a small fraction was removed and analysed with respect to hemoglobin content with a Cobas Bio spectrophotometer.
The degree of hemolysis was calculated according to the following expression [formula]
The position of the hemolysis curve along the concentration axis in such a diagram determines the hemolytic activity. The more hemolytic a surfactant is, the lower concentration is required to obtain a certain degree of hemolysis. In order to quantify the hemolytic activity, the concentration was considered at which 5% hemolysis was obtained. The higher the concentration, the lower the activity. The procedure was repeated at least once for all surfactants.

[3] = Solubilization of griseofulvin by surfactants (UV absorption spectrometry); format: physicochemical
Description: For each of the surfactants, four samples with different surfactant concentrations were prepared. The surfactants were dissolved and diluted in pure and filtered water. Griseofulvin was added in excess and the samples were allowed to equilibrate for 4 hours at 45° C. followed by 20 hours at room temperature. The samples were thoroughly shaken during the whole equilibration time. The samples were subsequently centrifuged to remove undissolved griseofulvin. The concentration of dissolved griseofulvin was determined by UV absorption spectrometry. The absorbance was recorded at the wavelength for maximum absorption, λmax=295 nm.
In line with the definition in Example 8, the solubilization capacity becomes [formula]

[4] = system: erythrocytes extracted from dog blood
Description: (§1) Erythrocytes were extracted from dog blood by a centrifugation—resuspension procedure. The fresh blood was subjected to mild centrifugation at 2000×g for 10 mins. The excessive blood plasma was removed and the so-obtained sediment of erythrocytes was resuspended in normal saline (0.9% NaCl in water). This procedure was repeated twice. The final volume of the erythrocyte suspension was equal to the initial volume of the fresh blood. Surfactant solutions with varying concentration of the surfactant were prepared by dissolving and diluting appropriate amounts of surfactants in 0.9% (w/w) NaCl in water. 100 μl surfactant solution was added to 400 μl erythrocyte suspension. The samples were vigorously agitated for 5 seconds immediately after addition, followed by 20 mins incubation at 37° C. under gentle shaking. The samples were centrifuged for 6 mins at 3000 g and 5° C. The centrifugation separated the samples into sediments of intact erythrocytes and a supernatant. A small fraction of the supernatant was removed and analysed with respect to hemoglobin content. The hemoglobin was allowed to undergo a chemical reaction with H2O2, aminophenazon, and phenol. […] From this concentration, the initial concentration of hemoglobin was calculated. Each determination was carried out for triplicate samples.
(§2) Negative control samples, i.e. samples for the determination of background lysis, were prepared by adding 100 μl normal saline to 400 μl erythrocyte suspension. These samples were treated and analysed in the same way as described above.
(§3) Positive control samples, i.e. samples for the determination of total hemoglobin content, were prepared by diluting the erythrocyte suspension 500 times with distilled water. The dilution caused complete lysis of all erythrocytes, and the concentration of released hemoglobin could be determined as described above.
(§4) The degree of lysis was calculated according to the following expression [formula]
(§5) where % L is the degree of lysis in %, [Hb] the concentration of released hemoglobin in the mixture of erythrocytes and surfactant, [Hb]0 the concentration of released hemoglobin in the negative control (basal hemolysis), and [Hb]tot the total concentration of hemoglobin in the mixtures of erythrocytes and surfactant.
(§6) The degree of lysis was determined as a function of the surfactant concentration in the mixture of erythrocytes and surfactant.
(§7) The activity of each surfactant to cause lysis of erythrocytes is indicated by the position of the lysis curve in the diagram. For a surfactant with low activity, a high concentration is required to obtain a certain degree of lysis. Here, the activity is quantified by considering the concentration at which 10% lysis is obtained. The higher the concentration, the lower the activity.

[5] = system: erythrocytes extracted from dog blood; assay: Determination of the lysis of erythrocytes
Description: as §1, §2, §3, §4, §5, §6, §7

[6] = no surfactant; cited from earlier work
[7] = surfactant 0.00 mM (no surfactant) in 0.9% (w/w) NaCl

Compound: CCCCCCCCCCCCO[C@@H]1O[C@H](CO)[C@@H](O[C@H]2O[C@H](CO)[C@@H](O)[C@H](O)[C@H]2O)[C@H](O)[C@H]1O [Dodecyl maltoside, n-dodecyl-β-D-maltopyranoside]
Griseofulvin concentration (solubility of griseofulvin) ([3]; surfactant 0.811 mM in water): 10.1 µM
Griseofulvin concentration (solubility of griseofulvin) ([3]; surfactant 1.622 mM in water): 22.1 µM
Griseofulvin concentration (solubility of griseofulvin) ([3]; surfactant 4.054 mM in water): 58.2 µM
Griseofulvin concentration (solubility of griseofulvin) ([3]; surfactant 8.108 mM in water): 115.7 µM
degree of hemolysis, % H ([2]; surfactant 0.098 mM in blood/surfactant mixture): 0.456%
degree of hemolysis, % H ([2]; surfactant 0.196 mM in blood/surfactant mixture): 1.047%
degree of hemolysis, % H ([2]; surfactant 0.392 mM in blood/surfactant mixture): 2.987%
degree of hemolysis, % H ([2]; surfactant 0.588 mM in blood/surfactant mixture): 4.772%
degree of hemolysis, % H ([2]; surfactant 0.784 mM in blood/surfactant mixture): 7.157%
degree of hemolysis, % H ([2]; surfactant 0.980 mM in blood/surfactant mixture): 7.563%
degree of hemolysis, % H ([2]; surfactant 1.177 mM in blood/surfactant mixture): 11.208%
Hemolytic activity (concentration range at which 5% hemolysis is obtained) [2]: 0.6 mM
Activity of lysis (concentration at which 10% lysis is obtained) [4]: 0.8 mM

Compound: CCCCCCCCO[C@@H]1O[C@H](CO)[C@@H](O[C@H]2O[C@H](CO)[C@@H](O)[C@H](O)[C@H]2O)[C@H](O)[C@H]1O [Octyl maltoside, n-octyl-β-D-maltopyranoside]
Griseofulvin concentration (solubility of griseofulvin) ([3]; surfactant 117.6 mM in water): 323.2 µM
Griseofulvin concentration (solubility of griseofulvin) ([3]; surfactant 235.1 mM in water): 442.5 µM
Griseofulvin concentration (solubility of griseofulvin) ([3]; surfactant 587.8 mM in water): 445.1 µM
Griseofulvin concentration (solubility of griseofulvin) ([3]; surfactant 1175.7 mM in water): 432 µM

Compound: COC1=CC(=O)C[C@@H](C)[C@]12Oc1c(Cl)c(OC)cc(OC)c1C2=O [griseofulvin, Griseofulvin]
solubility of griseofulvin in pure water [6]: 23 µM

Further lines, with some results ahead:

solubility of felodipine on addition of the surfactant (in words) [1]: increased
Felodipine concentration (solubility of felodipine) [1, 7]: <0.07 ^† mM
Felodipine concentration (solubility of felodipine) ([1]; surfactant 10.42 mM in 0.9% (w/w) NaCl): 1.7070 mM
Felodipine concentration (solubility of felodipine) ([1]; surfactant 20.84 mM in 0.9% (w/w) NaCl): 3.4064 mM
Felodipine concentration (solubility of felodipine) ([1]; surfactant 31.26 mM in 0.9% (w/w) NaCl): 5.1085 mM
Felodipine concentration (solubility of felodipine) ([1]; surfactant 41.680 mM in 0.9% (w/w) NaCl): 6.8927 mM
Compound: polyoxyethylene(23) lauryl ether [Brij ® 35]
degree of hemolysis, % H ([2]; surfactant 8.40 mM in blood/surfactant mixture): 0.87%
degree of hemolysis, % H ([2]; surfactant 16.80 mM in blood/surfactant mixture): 2.37%
degree of hemolysis, % H ([2]; surfactant 25.20 mM in blood/surfactant mixture): 5.04%
degree of hemolysis, % H ([2]; surfactant 33.60 mM in blood/surfactant mixture): 7.44%
degree of hemolysis, % H ([2]; surfactant 42.00 mM in blood/surfactant mixture): 10.85%
Hemolytic activity (concentration range at which 5% hemolysis is obtained) [2]: 25 mM

solubility of felodipine on addition of the surfactant (in words) [1]: increased
Felodipine concentration (solubility of felodipine) [1, 7]: <0.07 ^† mM
Felodipine concentration (solubility of felodipine) ([1]; surfactant 10.89 mM in 0.9% (w/w) NaCl): 2.64 mM
Felodipine concentration (solubility of felodipine) ([1]; surfactant 21.79 mM in 0.9% (w/w) NaCl): 5.22 mM
Felodipine concentration (solubility of felodipine) ([1]; surfactant 32.68 mM in 0.9% (w/w) NaCl): 7.76 mM
Felodipine concentration (solubility of felodipine) ([1]; surfactant 43.57 mM in 0.9% (w/w) NaCl): 10.25 mM
Compound: polyoxyethylene(20) stearyl ether [Brij ® 78]
degree of hemolysis, % H ([2]; surfactant 3.48 mM in blood/surfactant mixture): 1.09%
degree of hemolysis, % H ([2]; surfactant 3.65 mM in blood/surfactant mixture): 1.97%
degree of hemolysis, % H ([2]; surfactant 3.83 mM in blood/surfactant mixture): 2.47%
degree of hemolysis, % H ([2]; surfactant 4.00 mM in blood/surfactant mixture): 3.72%
degree of hemolysis, % H ([2]; surfactant 4.17 mM in blood/surfactant mixture): 6.14%
degree of hemolysis, % H ([2]; surfactant 4.35 mM in blood/surfactant mixture): 9.21%
Hemolytic activity (concentration range at which 5% hemolysis is obtained) [2]: 4 mM

Griseofulvin concentration (solubility of griseofulvin) ([3]; surfactant 2.804 mM in water): 23.4 µM
Griseofulvin concentration (solubility of griseofulvin) ([3]; surfactant 5.608 mM in water): 51 µM
Griseofulvin concentration (solubility of griseofulvin) ([3]; surfactant 14.019 mM in water): 132.9 µM
Griseofulvin concentration (solubility of griseofulvin) ([3]; surfactant 28.038 mM in water): 272 µM
degree of lysis of erythrocytes, % L ([5]; surfactant 0.20 mM in mixture of erythrocytes and surfactant): 0.31%
degree of lysis of erythrocytes, % L ([5]; surfactant 0.40 mM in mixture of erythrocytes and surfactant): 1.96%
degree of lysis of erythrocytes, % L ([5]; surfactant 0.80 mM in mixture of erythrocytes and surfactant): 7.60%
degree of lysis of erythrocytes, % L ([5]; surfactant 1.00 mM in mixture of erythrocytes and surfactant): 9.67%
degree of lysis of erythrocytes, % L ([5]; surfactant 2.01 mM in mixture of erythrocytes and surfactant): 15.11%
degree of lysis of erythrocytes, % L ([5]; surfactant 2.50 mM in mixture of erythrocytes and surfactant): 20.28%
Activity of lysis (concentration at which 10% lysis is obtained) ([5]; surfactant concentration in mixture of erythrocytes and surfactant, read from lysis curves): 1.1 mM
Compound: OC[C@H]1O[C@H](O[C@H]2[C@H](O)[C@@H](O)[C@H](OCCCCCCC3CCCCC3)O[C@@H]2CO)[C@H](O)[C@@H](O)[C@@H]1O [Cyclohexyl-hexyl maltoside, cyclohexyl-n-hexyl-β-D-maltopyranoside]
